Test results from patent publication US10822310B2, “Prevention and treatment of human metabolic syndrome including type 2 diabetes, steatohepititis and related conditions using non-absorbable, orally administered compounds” (priority 2017, dated 2020).

Legend:
[1] = rate studies of reaction with methyl glyoxal by reverse phase HPLC; conditions: pH 7, aqueous solution
FATZO mice = experiment: in vivo study in polygenic FATZO mouse model of metabolic syndrome, T2D and obesity
Experimental: (§1) In order to test the hypothesis that a non-absorbable compound which is confined to the GI tract can favorably affect metabolic syndrome T2D and related conditions in vivo studies were carried out with I/II using a polygenic mutant strain of mice that develop metabolic syndrome, T2D and obesity when fed a high fat (“Western type”) diet. This polygenic mouse model (“FATZO” mouse), developed by Eli Lilly Co. and PreClinOmics (now Crown Bio, Indianapolis, Ind.), has been described in detail (PLoS ONE, 12, 1-15 (2017). FATZO mice on a high fat diet generally gain weight, gradually become obese, and develop hyperglycemia, hypertension, glucose intolerance, insulin insensitivity and severe T2D. A group of FATZO mice were placed on a high fat diet (HFD) for an initial three-week ‘base’ period after which they were divided into two groups: Group 1 (the treated group) was maintained on a HFD along with 5 mg/day of I/II, administered in water by gavage. […] Blood glucose levels of the treated group were stabile and after six weeks about 50% below those of the untreated group. […] A third group of FATZO mice was maintained on a standard diet of ordinary mouse chow and also treated with 5 mg/day of I/II.

[2] = analysis of blood of treated mice by HPLC/mass spectrometry (absorption from GI tract); format: in vivo; conditions: treated FATZO mice
Experimental: as §1

GLP-1 = experiment: in vitro protection of GLP-1 from methyl glyoxal (UPLC/TOF-MS); format: biochemical; conditions: 0.62 mM peptide, 30 mM phosphate buffer pH 7.4, 20 equiv methyl glyoxal, 37 degrees C, 3 hours, 5 equiv compound relative to methyl glyoxal
Experimental: In order to test further the hypothesis that intestinal peptide hormones might be compromised by the chemical action of gut microbial products, in vitro studies were carried out with GLP-1, PYY and Oxyntomodulin. For these studies methyl glyoxal was selected as electrophile because it is a well-known microbial metabolite and also relevant to metabolic syndrome, T2D and diabetic neuropathy; see Diabetes, 63, 50-52 (2014); Biochemical Soc. Transact, 42, 450-456 (2014); Clinical Sci., 128, 839-861 (2015); Hypertension, 56, 471-476 (2010). Methyl glyoxal has also been implicated in neurodegenerative diseases—see Neuroscience, 9, 1-12 (2015). […] Methyl glyoxal can be detected in blood in amounts that correlate with the severity of T2D. […]
The results of the in vitro studies that have been carried out using methyl glyoxal and each of three intestinal peptide hormones, GLP-1, PYY (a satiety-sensing hormone), and Oxyntomodulin, can be summarized as follows: • 1. […] The mixture was cooled to ambient temperature and analyzed by ultra-high pressure liquid chromatography (Agilent 1290 UPLC) coupled with detection by triple time of flight mass spectrometry (Scitex 5600 TRIPTOF mass spectrometer), each aliquot being diluted with 20% aqueous acetic acid. • 2. […]

[3] = standard diet of ordinary mouse chow, 5 mg/day, six weeks

With `CN(C)C(=N)N=C(N)N` [metformin] the “reactivity (rate) toward methyl glyoxal relative to N-tosyl-arginine methyl ester” value [1] was “less than one-tenth the rate”.

Compound `NCc1nc2cc(S(=O)(=O)O)ccc2[nH]1` [I, 2-(Aminiomethyl)-1H-benzol[d]imidazole-5-sulfonate] has a pKa (physchem) of roughly 7.7.

For `NCc1nc2cc(S(=O)(=O)O)ccc2[nH]1` [I/II], the “fasting blood glucose level below that of untreated group” value (FATZO mice; high fat diet, 5 mg/day by gavage in water, after six weeks) was “about 50%”, the body weight gain (FATZO mice; high fat diet, 5 mg/day by gavage, six weeks (untreated gained 2% per week)) was “no weight gain” and the behavior (FATZO mice; [3]) was “completely normal behavior”. For the same compound, the body weight gain (FATZO mice; [3]) was “no weight gain”, the “increase in fasting blood glucose levels” value (FATZO mice; [3]) was “no increase in fasting blood glucose levels” and the “absorption from the GI tract after oral administration” value [2] was “no detectable absorption”. The “test compound in blood” value ([2]; oral administration, HPLC/mass spectrometry) was less than 0.01 mg. per mouse and the GLP-1 remained unchanged (GLP-1) was “greater than 95%”.
